Residue numbers refer to the chain shown, from its start.
B1: His-SMAD4WT, Q13485 1-552 (protein, not shown: small tags and cut ends)
chain: MDNMSITNTPTSNDACLSIVHSLMCHRQGGESETFAKRAIESLVKKLKEKKDELDSLITAITTNGAHPSKCVTIQRTLDGRLQVAGRKGFPHVIYARLWRWPDLHKNELKHVKYCQYAFDLKCDSVCVNPYHYERVVSPGIDLSGLTLQSNAPSSMMVKDEYVHDFEGQPSLSTEGHSIQTIQHPPSNRASTETYSTPALLAPSESNATSTANFPNIPVASTSQPASILGGSHSEGLLQIASGPQPGQQQNGFTGQPATYHHNSTTTWTGSRTAPYTPNLPHHQNGHLQHHPPMPPHPGHYWPVHNELAFQPPISNHPAPEYWCSIAYFEMDVQVGETFKVPSSCPIVTVDGYVDPSGGDRFCLGQLSNVHRTEAIERARLHIGKGVQLECKGEGDVWVRCLSDHAVFVQSYYLDREAGRAPGDAVHKIYPSAYIKVFDLRQCHRQMQQQAATAQAAAAAQAAAVAGNIPGPGSVGGIAPAISLSAAAGIGVDDLRRLCILRMSFVKGWGPDYPRQSIKETPCWIEIHLHRALQLLDEVLHTMPIADPQPLD
B2: His-SMAD4R361H, Q13485 1-552 (protein, not shown: small tags and cut ends)
chain: B1 chain with R361H

Tests used:
[1] = tested on: HCT116 cells (WT), SMAD4 knockout (null) and R361H isogenic cells; assay: Cell viability (CellTiter-Blue) in isogenic colon cancer cells; type: cell-based; details: Ro-31-8220 1 μM
Description: HCT116 cells (WT) and corresponding SMAD4 knockout (null) or R361H, isogenic cells were treated with TGF-β (10 ng/mL), Ro-31-8220 (1 μM), Go-6983 (10 μM), or in combination as indicated. The cell viability after treatment was measured using the CellTiter-Blue™ reagent and normalized to the untreated vehicle or DMSO controls (% C).
(§1) Experiments indicate that Ro-31-8220 is capable of restoring the SMAD4mut/SMAD3 PPI and the tumor-suppressive TGF-β signaling in the SMAD4 mutation cells. Experiments were also performed to determine whether Ro-31-8220 can promote TGF-β-evoked anti-proliferation function in cancer cells with SMAD4 missense mutations. Three functional assays were performed to measure the effect of Ro-31-8220 on cell-cycle progression, cell proliferation, and colony formation with WT and isogenic SMAD4 mutant colon cancer cells.
Thus, the effect of Ro-31-8220 on TGF-β-regulated cell proliferation was examined in the context of the SMAD4 mutation. TGF-β induced a significant decrease of cell viability of SMAD4 WT cells, while the isogenic SMAD4 null or R361H cells were resistant to such TGF-β-induced growth suppression (FIG. 3B).

[2] = tested on: HCT116 isogenic SMAD4 R361H cells; assay: Colony formation assay; type: cell-based; details: TGF-β 10 ng/mL; Ro-31-8220 1 μM, Go-6983 10 μM
Description: Parental HCT116 (WT) and isogenic R361H cells were treated with TGF-β (10 ng/mL), Ro-31-8220 (1 μM), Go-6983 (10 μM), or in combination as indicated.
as §1
The lost tumor suppressor function of mutated SMAD4, R361H, can be recapitulated in an in vitro tumorigenic assay. Colon cancer HCT116 cells with WT and their isogenic mutant SMAD4 cells can grow into large colonies.

[3] = tested on: SMAD4R361H with R-SMADs (SMAD3, SMAD2, SMAD1, SMAD5, SMAD8); assay: TR-FRET assay of SMAD4R361H with different R-SMAD isoforms; type: binding, Homo sapiens; details: for R-SMAD selectivity in inducing the interaction of SMAD4R361H with SMAD3 and SMAD2: among all the tested R-SMADs; for compound-induced TR-FRET signal for SMAD4R361H interaction with SMAD3 versus other R-SMADs: compound titration
Description: To determine the R-SMADs selectivity of Ro-31-8220 and Go-6983, experiments were performed to determine their effects on inducing PPI between SMAD4R361H and different isoforms of R-SMADs using the TR-FRET assay.

SMAD4D351H-SMAD3 PPI = target: T1, SMAD4D351H-SMAD3 PPI (Homo sapiens, UniProt Q13485, D351H); assay: GST pull-down assay of SMAD4D351H-SMAD3 complex formation; type: binding; details: DMSO as control
T1 construct: expressed in transfected cells
Source text: To evaluate the mutation selectivity of Ro-31-8220 and Go-6983, their potentiation effect on other SMAD4 loss-of-function mutations, such as D351H, was examined. The PPI between SMAD3 and SMAD4D351H was studied in the presence of these compounds with DMSO as a control.

[4] = target: T2, His-SMAD4R361H/Flag-SMAD3 PPI (Homo sapiens, UniProt Q13485, R361H); assay: TR-FRET assay of the SMAD4R361H/SMAD3 protein-protein interaction in cell lysate; type: binding; details: dose-response, read-out: EC50, increase of the TR-FRET signal of SMAD4R361H-SMAD3 PPI
T2 construct: expressed in transfected cells; host or cells: HEK293T

SMAD4R361H-SMAD3 complex = target: T3, SMAD4R361H-SMAD3 complex (Homo sapiens, UniProt Q13485, R361H); assay: GST beads pull-down assay of SMAD4R361H-SMAD3 complex formation; type: binding; details: cell lysate treated with compound, read-out: EC50, amount of SMAD3 in the SMAD4R361H complex
T3 construct: expressed in transfected cells

R361H cells = assay: Transcriptional response to TGF-β (pro-apoptotic and pro-autophagy genes); type: cell-based
[5] = tested on: HCT116 isogenic SMAD4 R361H cells; assay: Flow cytometry-based cell-cycle analysis (G1/S phase); details: TGF-β 10 ng/mL; Ro-31-8220 1 μM, Go-6983 10 μM
Description: Parental HCT116 (WT) and isogenic R361H cells were treated with TGF-β (10 ng/mL), Ro-31-8220 (1 μM), Go-6983 (10 μM), or in combination as indicated. The percentage of cells staying in G1/S phase was determined by flow cytometry.
as §1

Flag-SMAD3, P84022 = assay: TR-FRET, HEK293T cell lysate, anti-Flag-Tb / anti-His-D2; details: remark: other sources report otherwise
Flag-SMAD3, P84022, sequence (P84022 whole entry): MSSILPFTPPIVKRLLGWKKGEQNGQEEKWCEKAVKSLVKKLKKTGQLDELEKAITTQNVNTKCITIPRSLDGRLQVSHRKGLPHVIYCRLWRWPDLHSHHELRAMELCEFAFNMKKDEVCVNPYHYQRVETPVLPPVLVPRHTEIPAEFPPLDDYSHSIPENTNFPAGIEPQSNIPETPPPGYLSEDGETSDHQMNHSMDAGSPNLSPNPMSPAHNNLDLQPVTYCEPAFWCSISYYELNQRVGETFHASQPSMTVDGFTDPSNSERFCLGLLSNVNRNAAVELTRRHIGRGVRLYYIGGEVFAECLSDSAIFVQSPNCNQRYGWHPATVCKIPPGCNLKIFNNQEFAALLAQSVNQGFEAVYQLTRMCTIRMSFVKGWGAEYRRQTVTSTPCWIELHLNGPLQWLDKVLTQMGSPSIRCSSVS

T2 sequence (Q13485 whole entry R361H): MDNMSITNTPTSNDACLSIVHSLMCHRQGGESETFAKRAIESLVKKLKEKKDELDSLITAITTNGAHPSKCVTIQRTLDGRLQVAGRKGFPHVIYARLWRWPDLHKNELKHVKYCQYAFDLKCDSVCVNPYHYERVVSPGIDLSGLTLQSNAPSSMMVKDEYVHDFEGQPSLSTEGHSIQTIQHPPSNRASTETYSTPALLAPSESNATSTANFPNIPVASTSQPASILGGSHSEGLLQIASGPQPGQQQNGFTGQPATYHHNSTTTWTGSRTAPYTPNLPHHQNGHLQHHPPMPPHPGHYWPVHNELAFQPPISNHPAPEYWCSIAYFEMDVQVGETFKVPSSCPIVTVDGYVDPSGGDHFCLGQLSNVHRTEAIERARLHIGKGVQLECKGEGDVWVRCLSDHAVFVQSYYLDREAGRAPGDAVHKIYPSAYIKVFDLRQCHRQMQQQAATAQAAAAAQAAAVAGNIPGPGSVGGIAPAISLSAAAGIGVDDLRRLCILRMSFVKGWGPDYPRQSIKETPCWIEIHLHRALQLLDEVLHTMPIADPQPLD
T2 sequence (P84022 whole entry partner): as the sequence (P84022 whole entry) above
T3 sequence (Q13485 whole entry R361H): as the sequence (Q13485 whole entry R361H) above
T3 sequence (P84022 whole entry partner): as the sequence (P84022 whole entry) above
T1 sequence (Q13485 whole entry D351H): as the sequence (Q13485 whole entry R361H) above, with D351H, H361R counted along it
T1 sequence (P84022 whole entry partner): as the sequence (P84022 whole entry) above

signal-to-background ratio (Flag-SMAD3, P84022) [fold]	Molecule	combination with TGF-β in inhibiting cell viability ([1]; TGF-β 10 ng/mL, Go-6983 10 μM)	combination with TGF-β in inhibiting colon cancer cell colony formation [2]	R-SMAD selectivity in inducing the interaction of SMAD4R361H with SMAD3 and SMAD2 [3]	compound-induced TR-FRET signal for SMAD4R361H interaction with SMAD3 versus other R-SMADs [3]	SMAD3 level in the D351H GST pull-down complex (SMAD4D351H-SMAD3 PPI)	EC50 [4] [µM]	EC50 (SMAD4R361H-SMAD3 complex) [µM]	transcriptional response of R361H cells to TGF-β (R361H cells)	sensitivity of R361H cells to TGF-β-induced G1/S cell-cycle arrest [5]	sensitivity of SMAD4 R361H cells to TGF-β-induced growth suppression ([1]; R361H cells, TGF-β 10 ng/mL, Go-6983 10 μM)	growth inhibition by compound treatment alone ([1]; SMAD4 WT, null and R361H cells)	colony area of R361H cells, sensitivity to TGF-β-induced inhibition of colony formation [2]
	COc1ccc2c(c1)c(C1=C(c3c[nH]c4ccccc34)C(=O)NC1=O)cn2CCCN(C)C [Go-6983, 3-(1-(3-(dimethylamino)propyl)-5-methoxy-1H-indol-3-yl)-4-(1H-indol-3-yl)-1H-pyrrole-2,5-dione]	synergistic effect	synergistic effect	selective	significantly higher	significantly restored	15.2 ± 2.9	8.9 ± 0.7					
	Cn1cc(C2=C(c3cn(CCCSC(=N)N)c4ccccc34)C(=O)NC2=O)c2ccccc21 [Ro-31-8220, 3-(3-(4-(1-methyl-1H-indol-3-yl)-2,5-dioxo-2,5-dihydro-1H-pyrrol-3-yl)-1H-indol-1-yl)propyl carbamimidothioate]	synergistic effect	synergistic effect	selective	significantly higher	significantly restored	3.9 ± 1	2.1 ± 0.7	restored the transcriptional response	regained sensitivity	restored the sensitivity	did not result in any significant growth inhibition	significantly decreased colony area
30	B1												
10	B2												
